Data reported in ChEMBL document CHEMBL1201862, “PubChem BioAssay data set” (2004).
Activity calls are given as the source filed them.

Tests used:
[1] = target: DNA dC->dU-editing enzyme APOBEC-3A (Homo sapiens, UniProt P31941); assay: Dose Response confirmation of small molecule APOBEC3A DNA Deaminase Inhibitors via a fluorescence-based single-stranded DNA deaminase assay. [Related pubchem assays (depositor defined):AID493011, AID493024]; assay type: functional
[2] = target: DNA dC->dU-editing enzyme APOBEC-3G (Homo sapiens, UniProt Q9HC16); assay type: functional;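 further: Dose-response counterscreen measuring inhibition of APOBEC3G DNA deaminase activity, run while confirming APOBEC3A inhibitors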
Sequence of DNA dC->dU-editing enzyme APOBEC-3G (Q9HC16 whole entry): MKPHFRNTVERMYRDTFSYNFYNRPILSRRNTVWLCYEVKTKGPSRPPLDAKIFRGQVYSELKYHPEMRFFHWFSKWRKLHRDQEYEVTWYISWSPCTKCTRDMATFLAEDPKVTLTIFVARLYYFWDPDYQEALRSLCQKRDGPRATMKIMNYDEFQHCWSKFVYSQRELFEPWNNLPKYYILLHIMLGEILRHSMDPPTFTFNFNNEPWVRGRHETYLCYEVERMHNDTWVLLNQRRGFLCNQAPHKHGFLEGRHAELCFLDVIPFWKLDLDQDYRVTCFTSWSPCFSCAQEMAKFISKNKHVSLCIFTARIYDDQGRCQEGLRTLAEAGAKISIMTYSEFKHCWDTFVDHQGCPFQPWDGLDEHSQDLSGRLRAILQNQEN

Coagulation factor XII = target: T1, Coagulation factor XII (Homo sapiens, UniProt P00748); assay: activated coagulation factor XII inhibitor potency, concentration-effect curve, cell-free (AID 716); assay type: functional
T1 sequence (P00748 whole entry): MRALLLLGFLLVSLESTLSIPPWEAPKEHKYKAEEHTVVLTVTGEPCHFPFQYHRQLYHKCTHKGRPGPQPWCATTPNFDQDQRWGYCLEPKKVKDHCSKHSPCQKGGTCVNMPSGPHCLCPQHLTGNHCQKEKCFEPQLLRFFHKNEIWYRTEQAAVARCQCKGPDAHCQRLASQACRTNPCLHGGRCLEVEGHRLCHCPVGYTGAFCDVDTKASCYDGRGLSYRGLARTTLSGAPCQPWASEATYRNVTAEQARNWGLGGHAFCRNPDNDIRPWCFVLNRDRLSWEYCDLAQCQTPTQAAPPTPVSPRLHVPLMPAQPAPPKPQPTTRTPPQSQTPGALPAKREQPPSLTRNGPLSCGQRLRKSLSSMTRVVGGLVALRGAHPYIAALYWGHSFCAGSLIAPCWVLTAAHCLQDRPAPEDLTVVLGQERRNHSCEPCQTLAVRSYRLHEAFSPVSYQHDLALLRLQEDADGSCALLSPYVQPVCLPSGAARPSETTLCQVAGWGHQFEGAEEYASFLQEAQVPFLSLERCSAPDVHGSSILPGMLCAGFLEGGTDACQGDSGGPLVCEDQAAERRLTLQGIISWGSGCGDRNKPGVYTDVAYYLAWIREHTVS

[3] = viability loss of HPDE-C7K cells – cell-based, fluorescence, HTS, primary screen (AID 431); assay type: functional; conditions: Homo sapiens
[4] = HPDE-C7 pancreatic duct cell viability loss – fluorescence, HTS (AID 430); assay type: functional, cell-based; conditions: Homo sapiens
Prothrombin = Prothrombin (Homo sapiens, UniProt P00734); assay: Thrombin 1536 HTS Dose Response Confirmation. [Related pubchem assays: 1046 (Thrombin 1536 HTS; hits were confirmed in this assay)]; assay type: functional
[5] = OVCAR-3 cell viability loss – plate reader, dry powder samples, PAX8 inhibitor project, dose response (AID 743044); assay type: functional, cell-based
[6] = OVCAR8 cell viability loss – plate reader, dry powder samples, PAX8 project, dose response (AID 743197); assay type: functional, cell-based; conditions: OVCAR-8
Paired box protein Pax-8 = Paired box protein Pax-8 (Homo sapiens, UniProt Q06710); assay: PAX8 transcriptional activity inhibition in RMG-I – RMG-I cells, luciferase, cherry-pick, dose response (AID 687027); assay type: functional, cell-based;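 further: luciferase reporter driven by Pax8 target thyroperoxidase promoter measured by SteadyGlo luminescence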
Sequence of Paired box protein Pax-8 (Q06710 whole entry): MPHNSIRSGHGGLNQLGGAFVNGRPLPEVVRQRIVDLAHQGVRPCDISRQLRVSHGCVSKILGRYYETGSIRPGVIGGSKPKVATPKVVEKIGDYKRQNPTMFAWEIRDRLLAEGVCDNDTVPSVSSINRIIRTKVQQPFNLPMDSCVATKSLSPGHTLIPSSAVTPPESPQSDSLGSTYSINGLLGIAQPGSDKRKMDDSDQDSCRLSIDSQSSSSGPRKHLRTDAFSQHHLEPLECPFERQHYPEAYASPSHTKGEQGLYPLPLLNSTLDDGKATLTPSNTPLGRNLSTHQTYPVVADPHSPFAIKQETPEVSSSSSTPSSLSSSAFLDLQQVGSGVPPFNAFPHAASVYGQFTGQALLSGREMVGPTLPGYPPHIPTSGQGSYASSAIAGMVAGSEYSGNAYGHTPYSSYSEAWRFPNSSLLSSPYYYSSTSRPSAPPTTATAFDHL

[7] = Dd2 malaria parasite growth inhibition potency – SYBR Green, dry powder samples, dose response (AID 1159566); assay type: functional, cell-based;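 further: potency for growth inhibition with lower SYBR green DNA signal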
[8] = P. falciparum Dd2 growth inhibitors, dose response, SYBR Green, cherry-picked samples (AID 1159567); assay type: functional, cell-based
[9] = growth inhibition of yeast DHODH-expressing 3D7 parasites – SYBR Green, dry powder samples, dose response (AID 1159570); assay type: functional, cell-based;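 further: parasite growth measured after 72 hours of compound exposure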
[10] = growth inhibition of PfATP4-mutant resistant parasites – NITD609-resistant line, SYBR Green, dry powder, dose response (AID 1159571); assay type: functional, cell-based;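 further: parasites synchronized at ring stage by sorbitol before testing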
HT-1080 = assay: HT1080 cell viability loss – fluorescence readout (AID 620); assay type: functional, cell-based; conditions: Homo sapiens
[11] = target: Luciferin 4-monooxygenase (Photinus pyralis, UniProt P08659); assay: Counter Screen for Luciferase-based Assay Positives. [Related pubchem assays: 620, 618, 411 ]
Sequence of Luciferin 4-monooxygenase (P08659 whole entry): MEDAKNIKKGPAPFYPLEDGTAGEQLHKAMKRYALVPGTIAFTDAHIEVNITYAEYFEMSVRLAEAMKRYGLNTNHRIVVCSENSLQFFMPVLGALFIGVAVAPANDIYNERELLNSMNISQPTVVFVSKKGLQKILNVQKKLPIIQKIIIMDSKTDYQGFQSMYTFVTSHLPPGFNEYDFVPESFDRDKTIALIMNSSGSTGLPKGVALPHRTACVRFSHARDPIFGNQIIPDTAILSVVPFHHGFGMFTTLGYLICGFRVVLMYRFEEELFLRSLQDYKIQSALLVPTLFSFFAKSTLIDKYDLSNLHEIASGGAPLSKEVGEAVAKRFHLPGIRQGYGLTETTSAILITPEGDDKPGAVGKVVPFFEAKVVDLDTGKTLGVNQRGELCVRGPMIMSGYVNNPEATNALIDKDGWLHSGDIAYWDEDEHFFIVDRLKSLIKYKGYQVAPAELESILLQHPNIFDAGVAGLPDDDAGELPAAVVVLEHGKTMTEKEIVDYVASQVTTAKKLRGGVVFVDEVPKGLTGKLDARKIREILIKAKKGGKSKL

[12] = viability inhibitors of stage V gametocytes – luminescence, dose response (AID 1117278); assay type: functional, cell-based;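 further: gametocytes exposed to compound for 24 hours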
[13] = viability loss in human Jurkat cells – cell-based, luminescence, cytotoxicity control for P. falciparum gametocyte viability project, dose response (AID 1117277); assay type: functional;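 further: potency reflects loss of cellular ATP meaning fewer viable cells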

Sequence of DNA dC->dU-editing enzyme APOBEC-3A (P31941 whole entry): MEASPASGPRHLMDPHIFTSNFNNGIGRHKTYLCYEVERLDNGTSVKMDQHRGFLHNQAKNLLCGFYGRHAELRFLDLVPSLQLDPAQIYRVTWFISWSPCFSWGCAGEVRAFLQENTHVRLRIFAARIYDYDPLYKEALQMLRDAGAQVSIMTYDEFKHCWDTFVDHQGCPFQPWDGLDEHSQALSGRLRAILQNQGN

Compound: CCOC(=O)/C(CCCN(CC)CC)=N\O
- IC50 [1]: 1.35 µM (active)
- IC50 [2]: 1.26 µM (active)

Compound: COc1ccc(-n2c(Cc3cccs3)nnc2SCC(=O)Nc2ccc3c(c2)OCCO3)cc1
- IC50 (Coagulation factor XII): > 50 µM (inactive)

Compound: O=C(CSc1nnc2c3c4c(sc3ncn12)CCCC4)NCc1ccco1
- EC50 [3]: 14.5 µM (active)
- EC50 [4]: > 20 µM (not active)

Compound: CCN1CCN(c2ccc(S(=O)(=O)N3CCOCC3)cc2NC(=O)C(C)Oc2ccc(Cl)cc2)CC1 (stereo not given)
- IC50 [1]: 9.56 µM (active)
- IC50 [2]: 14.7 µM (active)

Compound: CCOC(=O)C(CC)(CCC(=O)OC)c1csc(Nc2ccccc2O)n1 (stereo not given)
- IC50 (Prothrombin): > 50 µM (not active)

Compound: Cc1ccc(S(=O)(=O)Nc2ccc3c(c2)C(=O)N([C@H](C)CO)C[C@@H](C)[C@H](CN(C)C(=O)Nc2cccc4ccccc24)OCCCC[C@@H](C)O3)cc1
- AC50 [5]: 42.1 µM (active)
- AC50 [6]: > 70 µM (inactive)
- AC50 (Paired box protein Pax-8): 5.78 µM (active)

Compound: CCn1cc(C(=O)N2CCc3ccccc32)c(=O)c2cc(S(=O)(=O)N3CCOCC3)ccc21
- EC50 [3]: > 20 µM (not active)
- EC50 [4]: > 20 µM (not active)

Compound: Nn1c(SCC(=O)Nc2ccc3c(c2)OCCO3)nnc(CCC(=O)O)c1=O
- IC50 [1]: 9.11 µM (active)
- IC50 [2]: 8.47 µM (active)

Compound: COc1ccc(C#Cc2ccc3c(c2)O[C@@H](CN(C)S(=O)(=O)c2ccccc2F)[C@@H](C)CN([C@@H](C)CO)S3(=O)=O)cc1
- AC50 [7]: 1.42 µM (active)
- AC50 [8]: 2.65 µM (active)
- AC50 [9]: 1.71 µM (active)
- AC50 [10]: 1.93 µM (active)

Compound: O=C(CCC1COc2ccccc2O1)NCc1ccco1 (stereo not given)
- IC50 (Coagulation factor XII): > 50 µM (inactive)

Compound: Cc1c(C(=O)N2CCC(C(N)=O)CC2)sc(N)c1C#N
- IC50 (Prothrombin): > 50 µM (not active)

Compound: COc1ccc(-c2cn3nc4c(nc3n2)CCCC4)cc1
- EC50 (HT-1080): > 50 µM (not active)
- EC50 [11]: 0.46 µM (active)

Compound: COc1ccc(NC(=O)CS(=O)(=O)c2ccccc2)cc1
- IC50 [12]: > 109 µM (inactive)
- IC50 [13]: > 83.2 µM (inactive)
